In patent publication US20250326785A1, “SODIUM SALT AND ETHANOLAMINE SALT OF 23-HYDROXYTORMENTIC ACID” (HUYABIO International, LLC, priority 2024, published 2025):
Like-named read-outs stand apart in the source and are kept apart here.

What was measured:
[1] = Salt disproportionation study (slurry in water, XRPD of solids, pH of mother liquor); assay type: physicochemical; conditions: for XRPD of recovered solids: ca. 24 h at 25° C.
Protocol: The pH of the filtered mother liquor was 9.77.
Salt disproportionation studies of ethanolamine salt. […] The pH of the filtered mother liquor was 8.65.
Method: 40 mg of sodium salt of HBI-3808 having a XRPD of Pattern 2, was weighed into a 2 mL push cap vial and a stirrer bar added. 0.2 mL of water was added to the vial and the experiment was stirred for ca. 24 h at 25° C. After 24 h the slurry was filtered by centrifuge filtration and the recovered solids were analyzed by XRPD. The pH of the filtered mother liquor was measured.

[2] = Stability study at 25° C./60% RH, 40° C./75% RH and 60° C. (XRPD, HPLC purity, impurity tracking); conditions: for XRPD: number = sodium salt XRPD Pattern; for RRT 0.801 / RRT 0.970 / RRT 1.000 (HBI-3808) / RRT 1.025 (Isomer of HBI-3808) / Total Impurities / RRT 1.935 / RRT 1.767: impurity tracking
From the text: Stability of HBI-3808 Sodium Salt Pattern 2 was studied over 13 weeks.
Table 2F presents impurity tracking results from a 13-week stability study of HBI-3808 sodium salt of Pattern 2. […]

[3] = Varying humidity (VH)-XRPD; assay type: physicochemical; conditions: 30° C.
Protocol: During the sorption phase, sodium salt Pattern 2 was observed between 40-60% RH. […] A mixture of sodium salt Pattern 2 and 5 was also observed at 80% RH. […] During the second desorption, from 90% RH to 40% RH, sodium salt Pattern 5 was maintained.
VH-XRPD analysis was carried out between 40-0% RH (FIG. 5L).

[4] = Dynamic vapor sorption (DVS) analysis; assay type: physicochemical
Protocol: GC analysis indicated residual solvent contents of 2847 ppm methanol; and 27 ppm TBME. […] No residual methanol or TBME was detected due to signal over-lap. […] TG-DSC analysis indicated two weight losses. The first weight loss of 2.3 wt. % was observed between 20-170° C. […] In the DSC thermogram, three endothermic events were observed (FIG. 17I). […] FT-IR (FIG. 17J) and Raman spectra (FIG. 17K) were recorded for reference. […] XRPD pattern of the ethanolamine salt was retained post-DVS (FIG. 17N). […] However, at the end of the experiment the solids on the microscope slide had discolored (FIG. 17O).

[5] = Hydration study in methanol/water aw 0.1, 0.5 and 0.9; assay type: physicochemical
From the text: Hydration studies of ethanolamine salt.

[6] = for HPLC Conc./: based on free acid
From the text: pH-dependent solubility of the HBI- 3808 sodium salt of Pattern 2 was studied.
pH dependent solubility of the HBI- 3808 sodium salt of Pattern 5 was studied.

[7] = 40° C./75% RH (open vial), 2 Weeks
[8] = 40° C./75% RH (open vial), 4 Weeks
[9] = 40° C./75% RH (open vial), 8 Weeks
[10] = 40° C./75% RH (open vial), 13 Weeks

## CC1CCC2(C(=O)[O-])CCC3(C)C(=CCC4C5(C)CC(O)C(O)C(C)(CO)C5CCC43C)C2C1(C)O.[Na+] (centres unmarked) [HBI-3808 sodium salt of Pattern 2, sodium salt of 23-hydroxytormentic acid]
[1]
  pH of the filtered mother liquor: 9.77
  XRPD of recovered solids: consistent with HBI-3808 sodium salt of Pattern 5
[1]; listed as sodium salt of HBI-3808 having a XRPD of Pattern 2
  XRPD of recovered solids: consistent with sodium salt of HBI-3808 having a XRPD of pattern 5
[2]; 25° C./60% RH (open vial), 1 Week
  HPLC/ % area: 97.3 % area
[2]; 25° C./60% RH (open vial), 2 Weeks
  HPLC/ % area: 97.2 % area
[2]; 25° C./60% RH (open vial), 4 Weeks
  HPLC/ % area: 97.3 % area
[2]; 25° C./60% RH (open vial), 8 Weeks
  HPLC/ % area: 96.7 % area
[2]; 25° C./60% RH (open vial), 13 Weeks
  HPLC/ % area: 97.1 % area
[2]; 40° C./75% RH (open vial), 1 Week
  HPLC/ % area: 97.1 % area
[2]; [7]
  HPLC/ % area: 97.0 % area
  XRPD: 5
[2]; [8]
  HPLC/ % area: 97.3 % area
  XRPD: 5
[2]; [9]
  HPLC/ % area: 96.3 % area
  XRPD: 5
[2]; [10]
  HPLC/ % area: 97.0 % area
  XRPD: 5
[2]; 60° C. (closed vial), 1 Week
  HPLC/ % area: 97.2 % area
  XRPD: 2
[2]; 60° C. (closed vial), 2 Weeks
  HPLC/ % area: 97.3 % area
  XRPD: 2
[2]; 60° C. (closed vial), 4 Weeks
  HPLC/ % area: 97.3 % area
  XRPD: 2
[2]; 60° C. (closed vial), 8 Weeks
  HPLC/ % area: 96.4 % area
  XRPD: 2
[2]; 60° C. (closed vial), 13 Weeks
  HPLC/ % area: 97.3 % area
[2]; all conditions (25° C./60% RH; 40° C./75% RH; 60° C.), 13 weeks (Pattern 5: 4 weeks)
  change in chemical purity by HPLC over the stability study: no significant decrease in chemical purity
[2]; 25° C./60% RH, 1 week
  RRT 0.801: 0.10 % area
  RRT 0.970: 0.10 % area
  RRT 1.000 (HBI-3808): 97.31 % area
  RRT 1.025 (Isomer of HBI-3808): 2.48 % area
  Total Impurities: 2.69 % area
[2]; 25° C./60% RH, 2 weeks
  RRT 0.970: 0.12 % area
  RRT 1.000 (HBI-3808): 97.29 % area
  RRT 1.025 (Isomer of HBI-3808): 2.39 % area
  RRT 1.935: 0.20 % area
  Total Impurities: 2.71 % area
[2]; 25° C./60% RH, 4 weeks
  RRT 0.970: 0.11 % area
  RRT 1.000 (HBI-3808): 97.47 % area
  RRT 1.025 (Isomer of HBI-3808): 2.41 % area
  Total Impurities: 2.53 % area
[2]; 25° C./60% RH, 8 weeks
  RRT 0.970: 0.10 % area
  RRT 1.000 (HBI-3808): 96.99 % area
  RRT 1.025 (Isomer of HBI-3808): 2.51 % area
  RRT 1.767: 0.29 % area
  Total Impurities: 3.01 % area
[2]; 25° C./60% RH, 13 weeks
  RRT 0.801: 0.12 % area
  RRT 1.000 (HBI-3808): 97.33 % area
  RRT 1.025 (Isomer of HBI-3808): 2.37 % area
  RRT 1.935: 0.19 % area
  Total Impurities: 2.67 % area
[2]; 40° C./75% RH, 1 week
  RRT 0.801: 0.10 % area
  RRT 0.970: 0.14 % area
  RRT 1.000 (HBI-3808): 97.28 % area
  RRT 1.025 (Isomer of HBI-3808): 2.48 % area
  Total Impurities: 2.72 % area
[2]; 40° C./75% RH, 2 weeks
  RRT 0.970: 0.12 % area
  RRT 1.000 (HBI-3808): 97.26 % area
  RRT 1.025 (Isomer of HBI-3808): 2.40 % area
  RRT 1.935: 0.22 % area
  Total Impurities: 2.74 % area
[2]; 40° C./75% RH, 4 weeks
  RRT 0.970: 0.11 % area
  RRT 1.000 (HBI-3808): 97.5 % area
  RRT 1.025 (Isomer of HBI-3808): 2.41 % area
  Total Impurities: 2.52 % area
[2]; 40° C./75% RH, 8 weeks
  RRT 0.970: 0.21 % area
  RRT 1.000 (HBI-3808): 96.88 % area
  RRT 1.025 (Isomer of HBI-3808): 2.51 % area
  RRT 1.767: 0.40 % area
  Total Impurities: 3.12 % area
[2]; 40° C./75% RH, 13 weeks
  RRT 1.000 (HBI-3808): 97.41 % area
  RRT 1.025 (Isomer of HBI-3808): 2.40 % area
  RRT 1.935: 0.20 % area
  Total Impurities: 2.59 % area
[2]; 60° C., 1 week
  RRT 0.801: 0.12 % area
  RRT 1.000 (HBI-3808): 97.46 % area
  RRT 1.025 (Isomer of HBI-3808): 2.43 % area
  Total Impurities: 2.54 % area
[2]; 60° C., 2 weeks
  RRT 0.970: 0.12 % area
  RRT 1.000 (HBI-3808): 97.27 % area
  RRT 1.025 (Isomer of HBI-3808): 2.41 % area
  RRT 1.935: 0.20 % area
  Total Impurities: 2.73 % area
[2]; 60° C., 4 weeks
  RRT 0.970: 0.11 % area
  RRT 1.000 (HBI-3808): 97.49 % area
  RRT 1.025 (Isomer of HBI-3808): 2.40 % area
  Total Impurities: 2.51 % area
[2]; 60° C., 8 weeks
  RRT 0.970: 0.12 % area
  RRT 1.000 (HBI-3808): 97.04 % area
  RRT 1.025 (Isomer of HBI-3808): 2.49 % area
  RRT 1.767: 0.35 % area
  Total Impurities: 2.96 % area
[2]; 60° C., 13 weeks
  RRT 1.000 (HBI-3808): 97.41 % area
  RRT 1.025 (Isomer of HBI-3808): 2.41 % area
  RRT 1.935: 0.18 % area
  Total Impurities: 2.59 % area
[2]; T = 0
  RRT 1.000 (HBI-3808): 97.82 % area
  RRT 1.025 (Isomer of HBI-3808): 2.18 % area
  Total Impurities: 2.18 % area
[2]; input material of the stability study (baseline)
  input purity by HPLC: 97.2 % area
[3]; 40-0% RH
  XRPD pattern during desorption: no change in XRPD Pattern
[3]; at 70% RH
  XRPD pattern during sorption: composite XRPD diffractogram of sodium salt Pattern 2 and 5
[3]; at 90% RH
  XRPD pattern during sorption: only sodium salt Pattern 5 was observed
[4]
  XRPD of recovered material post-DVS: consistent with sodium salt of Pattern 5
[4]; Pattern 2: second DVS cycle
  reversibility of mass uptake/loss: reversible
[4]; at 80% RH/25° C. (Pattern 2: second DVS cycle)
  water (mass) uptake: 0.8 wt. %
[4]; first sorption cycle between 60-80% RH
  irreversible mass loss: about 2.4 wt. %
[5]
  XRPD of solids recovered at the end of the experiment: consistent with sodium salt Pattern 2
[6]; FaSSGF
  final Measured pH: 9.35
  HPLC Conc./: >221.2 mg/mL
[6]; pH 1.2
  concentration: < 100 µg/mL
[6]; target pH 1.2 chloride buffer, start 200 mg/mL (ethanolamine salt 100 mg/mL)
  HPLC Conc./: <0.005 mg/mL
[6]; target pH 3.0 acetate buffer
  HPLC Conc./: 0.006 mg/mL
[6]; target pH 4.0 acetate buffer
  HPLC Conc./: <0.005 mg/mL
[6]; target pH 6.8 phosphate buffer
  HPLC Conc./: 0.4 mg/mL
[6]; target pH 8.0 phosphate buffer
  HPLC Conc./: 15.3 mg/mL
